What was measured:
mGluR5 = biological target: T1, mGluR5 (Rattus norvegicus, UniProt P31424); experiment: mGluR5 binding assay ([3H]-MPEP radioligand competition); conditions: competition with 3 nM [3H]-MPEP, rat brain cortical membranes, 1 h at 4 °C; mean of at least three independent experiments in duplicate
T1 construct: tissue Charles River Laboratories; host or cells: rat brain cortex membranes (Sprague-Dawley)
Procedure, shortened: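 Rat cortical membranes (50 μg) were incubated 1 h at 4 °C with 3 nM [3H]-MPEP and compound (0.003 nM-30 μM, 8 points) in HEPES buffer pH 7.4 with Mg2+, Ca2+ and NaCl. 30 μM MPEP defined non-specific binding, and bound label was counted after filtration. IC50 came from non-linear regression, as the mean of ≥3 experiments run in duplicate.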

T1 sequence (P31424 21-1203): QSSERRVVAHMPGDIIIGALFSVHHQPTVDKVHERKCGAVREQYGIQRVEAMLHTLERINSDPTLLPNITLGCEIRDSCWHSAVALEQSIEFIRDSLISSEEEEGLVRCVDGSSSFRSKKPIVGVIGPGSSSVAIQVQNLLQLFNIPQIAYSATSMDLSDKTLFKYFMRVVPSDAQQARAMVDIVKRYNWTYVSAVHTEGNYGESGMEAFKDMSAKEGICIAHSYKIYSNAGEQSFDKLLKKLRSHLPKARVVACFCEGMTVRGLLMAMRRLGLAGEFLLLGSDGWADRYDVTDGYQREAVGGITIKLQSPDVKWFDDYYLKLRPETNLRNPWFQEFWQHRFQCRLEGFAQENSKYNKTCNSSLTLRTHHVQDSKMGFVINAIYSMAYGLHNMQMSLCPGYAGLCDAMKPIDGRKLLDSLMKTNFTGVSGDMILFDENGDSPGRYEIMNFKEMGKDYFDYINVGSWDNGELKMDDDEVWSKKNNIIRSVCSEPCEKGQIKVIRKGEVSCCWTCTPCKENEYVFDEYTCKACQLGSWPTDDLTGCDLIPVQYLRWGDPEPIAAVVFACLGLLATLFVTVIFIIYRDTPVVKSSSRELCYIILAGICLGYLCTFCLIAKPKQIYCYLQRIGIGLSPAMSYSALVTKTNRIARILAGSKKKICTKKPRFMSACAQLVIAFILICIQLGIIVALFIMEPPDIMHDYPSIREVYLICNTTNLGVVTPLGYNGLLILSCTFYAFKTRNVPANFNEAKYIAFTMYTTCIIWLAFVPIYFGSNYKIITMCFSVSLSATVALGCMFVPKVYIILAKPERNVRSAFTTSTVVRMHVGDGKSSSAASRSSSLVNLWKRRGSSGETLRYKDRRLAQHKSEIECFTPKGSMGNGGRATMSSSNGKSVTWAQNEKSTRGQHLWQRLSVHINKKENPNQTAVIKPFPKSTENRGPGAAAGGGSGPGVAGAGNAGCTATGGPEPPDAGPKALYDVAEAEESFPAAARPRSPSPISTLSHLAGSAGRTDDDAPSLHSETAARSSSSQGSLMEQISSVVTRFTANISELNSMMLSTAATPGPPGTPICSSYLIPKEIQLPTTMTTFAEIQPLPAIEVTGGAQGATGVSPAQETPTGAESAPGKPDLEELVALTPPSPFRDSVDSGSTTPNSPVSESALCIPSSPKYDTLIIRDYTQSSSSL

## Fc1cc(F)c2nc(CCC#Cc3ccccn3)cn2c1 [Example 228, 6,8-Difluoro-2-(4-(pyridin-2-yl)but-3-ynyl)-imidazo[1,2-a]pyridine]
other
  melting point: 130 to 131 °C
mGluR5
  IC50: < 0.05 µM

## Fc1cccnc1C#CCCc1nc2ccccc2o1 [Example 230]
other
  melting point: 86 to 88 °C
mGluR5
  IC50: < 10 µM

## Cc1nc(C#CCCc2nc3ccccc3o2)c[nH]1 [Example 231, 2-(4-(2-Methyl-1H-imidazol-4-yl)but-3-ynyl)benzo[d]oxazole]
other
  melting point: 152 to 154 °C
mGluR5
  IC50: < 10 µM

## O=C(CCC#Cc1cccc(CF)n1)Nc1ccc(F)cc1 [Example 232, 5-(6-(Fluoromethyl)pyridin-2-yl)-N-(4-fluorophenyl)pent-4-ynamide]
other
  melting point: 110 °C
mGluR5
  IC50: < 10 µM

## Cc1nc(C#CCCc2nc3ccccc3o2)cn1C [Example 233, 2-(4-(1,2-Dimethyl-1H-imidazol-4-yl)but-3-ynyl)benzo[d]oxazole]
other
  melting point: 117 to 119 °C
mGluR5
  IC50: < 10 µM

## O=C1c2ccccc2CN1CCC#Cc1ccccn1 [Example 234, 2-(4-(Pyridin-2-yl)but-3-ynyl)isoindolin-1-one]
other
  melting point: 94 to 98 °C
mGluR5
  IC50: < 10 µM

## FCc1cccc(C#CCCc2nc3ccccc3s2)n1 [Example 241, 2-(4-(6-(Fluoromethyl)pyridin-2-yl)but-3-ynyl)benzo[d]thiazole]
other
  melting point: 74 to 76 °C
mGluR5
  IC50: < 0.05 µM

## O=C1c2ccccc2C(=O)N1CCCC#Cc1ccccn1 [Example 242, 2-(5-(Pyridin-2-yl)pent-4-ynyl)isoindoline-1,3-dione]
other
  melting point: 127 to 129 °C
mGluR5
  IC50: < 10 µM

## O=C(CCC#Cc1ccccn1)Nc1ccc(Cl)cc1 [Example 244, N-(4-Chlorophenyl)-5-(pyridin-2-yl)pent-4-ynamide]
other
  melting point: 110 to 111 °C
mGluR5
  IC50: < 10 µM

## O=C(CCC#Cc1ccccn1)Nc1cccc(Cl)c1 [Example 245, N-(3-Chlorophenyl)-5-(pyridin-2-yl)pent-4-ynamide]
other
  melting point: 167.8 to 168.8 °C
mGluR5
  IC50: < 10 µM

## O=C(CCC#Cc1ccccn1)Nc1ccc(F)cc1F [Example 246, N-(2,4-Difluorophenyl)-5-(pyridin-2-yl)pent-4-ynamide]
other
  melting point: 132 to 133.2 °C
mGluR5
  IC50: < 10 µM

## Fc1ccc(-c2cnn(CCC#Cc3ccccn3)n2)cc1 [Example 249, 2-(4-(4-(4-Fluorophenyl)-2H-1,2,3-triazol-2-yl)but-1-ynyl)pyridine]
other
  melting point: 83.5 to 84.5 °C
mGluR5
  IC50: < 10 µM

From patent publication US8883826B2, “Alkynyl derivatives as modulators of metabotropic glutamate receptors” (Addex Pharma SA, priority 2004, dated 2014)
